# pEC50: −log10 of the molar value. Entries after “also recorded” stand apart in the source; their conditions may differ.
# Columns and labels:
# [1] = Storage of forms of Compound 36 at 40° C./75% RH in open vials, XRPD; type: physicochemical; conditions: open vial
# Experimental: Form A was stored at 40° C./75% RH, in an open vial. […] Therefore, Form A is stable to exposure to elevated temperature and humidity for up to 2 weeks and no evidence of a hydrated form was observed.
# One sample of each of the new forms (Forms B, C, D, E, E+extra peaks, F, G and H) was analysed by ^1H NMR, TGA, DSC and stored at 40° C./75% RH. Results are summarised in Table E with Form A for comparison.
# [2] = biological target: human TMEM16A (TMEM16Aabc variant) (Homo sapiens, UniProt Q5XXA6, DEL476-501, form not given); test: Automated whole-cell patch clamp (Qpatch) TMEM16A potentiator assay in FRT cells stably expressing human TMEM16A; type: cell-based; conditions: for % Potentiation @ 3.33 μM Avg: 3.33 μM solution of test compound, percentage increase of baseline TMEM16A current; for pEC50: calculated EC50, Qpatch TMEM16A current at +70 mV
# Method in brief: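 Potentiation was read as the rise in peak +70 mV current over baseline (%), from cumulative 5-min additions of compound. Recordings used whole-cell automated patch of FRT cells stably carrying human TMEM16Aabc, with pipette Ca2+ buffered to give ~20% maximal current. EC50 and efficacy came from concentration-response fits.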
# [3] = Solubility assessment of Compound 36 Form A in solvents at 50° C.; type: physicochemical; set-up: key to Solubility (dissolution in solvent): ✓: material dissolved at 50° C.; x: material did not dissolve; ?: partial dissolution
# Experimental: Compound 36 (Form 1, approximately 30 mg) was weighed into 2 ml glass vials and was treated with aliquots of solvent. The samples were stirred at 50° C., 400 rpm, for approximately 10 minutes between addition of aliquots of solvent. Solvent was added until a clear solution was formed or a maximum of 60 volumes (1.8 ml) of solvent was reached.
# Samples that were solutions (or close to dissolution, sample in DCM) were cooled to 5° C. at 0.1° C./min and were stirred overnight. After cooling, the samples that contained solids were filtered using PTFE frits, dried under suction for approximately 30 minutes and were analysed by XRPD.
# Samples that were suspensions in 60 volumes of solvent were matured (shaken in cycles of 4 hours at 50° C./4 hours at RT). After 5 days, samples were filtered using PTFE frits, dried under suction for approximately 30 minutes and were analysed by XRPD.
# [4] = Competitive suspension equilibration of all known forms of Compound 36 in surfactant buffers; type: physicochemical; conditions: 20° C.
# Experimental: Equimolar composites of the forms of Compound 36 were stirred in each surfactant buffer configuration as follows.
# Equimolar admixtures of each form and the amorphous phase were prepared and suspended in the appropriate surfactant buffer configuration at the dose relevant concentration of 5 mg/ml and stirred at 20° C. for 13 days. Stirring was suspended, the slurries were centrifuged, supernatant decanted and the pellets were dried under reduced pressure and analysed.
# All known forms of Compound 36 were combined in approximately equimolar proportions. Each composite was suspended in Tween/Span and Tween 80 buffers (5 mg/ml concentration) in two vessels and stirred at 20° C. […] Therefore, order of succession in formulation vehicles under ambient storage supported Form A as the preferred form.
# [5] = Solubility assessment of Compound 36 Form A in solvents at 50° C.; type: physicochemical; conditions: acetone and ethanol
# Sequence of human TMEM16A (TMEM16Aabc variant) (Q5XXA6 with tags, fused parts or gaps DEL476-501): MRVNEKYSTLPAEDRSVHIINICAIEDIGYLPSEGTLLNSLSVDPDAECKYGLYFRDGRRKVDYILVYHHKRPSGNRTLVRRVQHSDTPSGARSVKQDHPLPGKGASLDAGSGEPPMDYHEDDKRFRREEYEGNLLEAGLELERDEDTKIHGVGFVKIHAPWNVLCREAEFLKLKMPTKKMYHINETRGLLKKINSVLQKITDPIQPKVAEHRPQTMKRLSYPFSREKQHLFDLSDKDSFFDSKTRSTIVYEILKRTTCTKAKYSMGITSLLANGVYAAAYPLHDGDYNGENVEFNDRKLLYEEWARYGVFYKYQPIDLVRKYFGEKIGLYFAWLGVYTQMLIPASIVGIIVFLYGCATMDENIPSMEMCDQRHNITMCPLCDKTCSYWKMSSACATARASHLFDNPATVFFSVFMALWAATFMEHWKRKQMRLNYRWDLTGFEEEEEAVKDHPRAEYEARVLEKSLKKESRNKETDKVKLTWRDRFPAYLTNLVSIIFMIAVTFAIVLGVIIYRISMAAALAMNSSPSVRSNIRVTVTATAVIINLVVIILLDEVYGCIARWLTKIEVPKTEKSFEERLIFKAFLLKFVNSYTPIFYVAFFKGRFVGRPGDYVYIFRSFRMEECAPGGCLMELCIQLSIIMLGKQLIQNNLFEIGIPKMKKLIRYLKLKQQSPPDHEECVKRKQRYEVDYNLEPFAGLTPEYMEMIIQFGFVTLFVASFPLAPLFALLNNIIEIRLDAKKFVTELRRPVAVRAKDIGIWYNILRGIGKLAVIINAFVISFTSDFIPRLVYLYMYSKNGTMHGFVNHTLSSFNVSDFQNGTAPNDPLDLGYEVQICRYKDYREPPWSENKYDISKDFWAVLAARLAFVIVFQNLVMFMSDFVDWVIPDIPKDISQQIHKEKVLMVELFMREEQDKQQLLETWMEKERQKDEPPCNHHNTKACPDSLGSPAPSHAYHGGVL
smiles,measurement,setting,value
"C#CC(C)(C)NC(=O)c1cc(NC(=O)Cc2cc(Cl)ccc2O)ccn1 [Compound 36 Form E, 4-[[2-(5-Chloro-2-hydroxy-phenyl)acetyl]amino]-N-(1,1-dimethylprop-2-ynyl)pyridine-2-carboxamide]",Storage at 40° C./75% RH (change of form by XRPD),[1]; 7 days,Changed to mainly
"C#CC(C)(C)NC(=O)c1cc(NC(=O)Cc2cc(Cl)ccc2O)ccn1 [Compound 36 Form F, 4-[[2-(5-Chloro-2-hydroxy-phenyl)acetyl]amino]-N-(1,1-dimethylprop-2-ynyl)pyridine-2-carboxamide]",Storage at 40° C./75% RH (change of form by XRPD),[1]; 7 days,stable; also recorded: No change (7
"C#CC(C)(C)NC(=O)c1cc(NC(=O)Cc2cc(Cl)ccc2O)ccn1 [Compound 36 Form D, 4-[[2-(5-Chloro-2-hydroxy-phenyl)acetyl]amino]-N-(1,1-dimethylprop-2-ynyl)pyridine-2-carboxamide]",Storage at 40° C./75% RH (change of form by XRPD),[1]; 7 days,converted to a mixture of Form A and Form B; also recorded: Changed to mainly
"C#CC(C)(C)NC(=O)c1cc(NC(=O)Cc2cc(Cl)ccc2O)ccn1 [Compound 36 Form G, 4-[[2-(5-Chloro-2-hydroxy-phenyl)acetyl]amino]-N-(1,1-dimethylprop-2-ynyl)pyridine-2-carboxamide]",Storage at 40° C./75% RH (change of form by XRPD),[1]; 7 days,Changed to Form A
"C#CC(C)(C)NC(=O)c1cc(NC(=O)Cc2cc(Cl)ccc2O)ccn1 [Compound 36 Form B, 4-[[2-(5-Chloro-2-hydroxy-phenyl)acetyl]amino]-N-(1,1-dimethylprop-2-ynyl)pyridine-2-carboxamide]",Storage at 40° C./75% RH (change of form by XRPD),[1]; 7 days,stable; also recorded: No change (7 days)
"C#CC(C)(C)NC(=O)c1cc(NC(=O)Cc2cc(Cl)ccc2O)ccn1 [Example 36, 4-[[2-(5-Chloro-2-hydroxy-phenyl)acetyl]amino]-N-(1,1-dimethylprop-2-ynyl)pyridine-2-carboxamide]",% Potentiation @ 3.33 μM Avg,[2],199%
same,pEC50,[2],7.70
same,Solubility (in words),[3]; acetonitrile/water mixtures,freely soluble
same,Solubility (dissolution in anti-solvents),"[3]; n-heptane, water and TBME, up to 60 volumes, 50° C.",no observable dissolution
same,Form produced by competitive suspension equilibration (XRPD),"[4]; Tween/Span and Tween 80 buffers, 5 mg/ml, 13 days",consistent with Form A
same,"Solubility (relative, in words)",[5],most soluble
"C#CC(C)(C)NC(=O)c1cc(NC(=O)Cc2cc(Cl)ccc2O)ccn1 [Compound 36 Form A, 4-[[2-(5-Chloro-2-hydroxy-phenyl)acetyl]amino]-N-(1,1-dimethylprop-2-ynyl)pyridine-2-carboxamide]",Solubility (dissolution in solvent),"[3]; 2-Propanol, 5 vol, 50° C.",x
same,Solubility (dissolution in solvent),"[3]; 2-Propanol, 10 vol, 50° C.",x
same,Solubility (dissolution in solvent),"[3]; 2-Propanol, 30 vol, 50° C.",✓
same,Solubility (dissolution in solvent),"[3]; 5% aqueous ACN, 5 vol, 50° C.",x
same,Solubility (dissolution in solvent),"[3]; 5% aqueous ACN, 20 vol, 50° C.",✓
same,Solubility (dissolution in solvent),"[3]; 20% aqueous ACN, 5 vol, 50° C.",x
same,Solubility (dissolution in solvent),"[3]; 20% aqueous ACN, 10 vol, 50° C.",✓
same,Solubility (dissolution in solvent),"[3]; Acetone, 5 vol, 50° C.",✓
same,Solubility (dissolution in solvent),"[3]; Acetone, 10 vol, 50° C.",✓
same,Solubility (dissolution in solvent),"[3]; Acetonitrile, 5 vol, 50° C.",x
same,Solubility (dissolution in solvent),"[3]; Acetonitrile, 10 vol, 50° C.",x
same,Solubility (dissolution in solvent),"[3]; Acetonitrile, 30 vol, 50° C.",✓
same,Solubility (dissolution in solvent),"[3]; Dichloromethane, 5 vol, 50° C.",x
same,Solubility (dissolution in solvent),"[3]; Dichloromethane, 10 vol, 50° C.",x
same,Solubility (dissolution in solvent),"[3]; Dichloromethane, 20 vol, 50° C.",x
same,Solubility (dissolution in solvent),"[3]; Dichloromethane, 30 vol, 50° C.",x
same,Solubility (dissolution in solvent),"[3]; Ethanol, 5 vol, 50° C.",x
same,Solubility (dissolution in solvent),"[3]; Ethanol, 10 vol, 50° C.",✓
same,Solubility (dissolution in solvent),"[3]; Ethyl Acetate, 5 vol, 50° C.",x
same,Solubility (dissolution in solvent),"[3]; Ethyl Acetate, 10 vol, 50° C.",x
same,Solubility (dissolution in solvent),"[3]; Ethyl Acetate, 20 vol, 50° C.",✓
same,Solubility (dissolution in solvent),"[3]; Tetrahydrofuran, 5 vol, 50° C.",x
same,Solubility (dissolution in solvent),"[3]; Tetrahydrofuran, 10 vol, 50° C.",x
same,Solubility (dissolution in solvent),"[3]; Tetrahydrofuran, 20 vol, 50° C.",✓
same,Solubility (dissolution in solvent),"[3]; Water, 5 vol, 50° C.",x
same,Solubility (dissolution in solvent),"[3]; Water, 10 vol, 50° C.",x
same,Solubility (dissolution in solvent),"[3]; Water, 20 vol, 50° C.",x
same,Solubility (dissolution in solvent),"[3]; Water, 30 vol, 50° C.",x
same,Solubility (dissolution in solvent),"[3]; Water, 40 vol, 50° C.",x
same,Solubility (dissolution in solvent),"[3]; Water, 50 vol, 50° C.",x
same,Solubility (dissolution in solvent),"[3]; Water, 60 vol, 50° C.",x
same,Solubility (dissolution in solvent),"[3]; n-Heptane, 5 vol, 50° C.",x
same,Solubility (dissolution in solvent),"[3]; n-Heptane, 10 vol, 50° C.",x
same,Solubility (dissolution in solvent),"[3]; n-Heptane, 20 vol, 50° C.",x
same,Solubility (dissolution in solvent),"[3]; n-Heptane, 30 vol, 50° C.",x
same,Solubility (dissolution in solvent),"[3]; n-Heptane, 40 vol, 50° C.",x
same,Solubility (dissolution in solvent),"[3]; n-Heptane, 50 vol, 50° C.",x
same,Solubility (dissolution in solvent),"[3]; n-Heptane, 60 vol, 50° C.",x
same,Solubility (dissolution in solvent),"[3]; tert-Butylmethyl Ether, 5 vol, 50° C.",x
same,Solubility (dissolution in solvent),"[3]; tert-Butylmethyl Ether, 10 vol, 50° C.",x
same,Solubility (dissolution in solvent),"[3]; tert-Butylmethyl Ether, 20 vol, 50° C.",x
same,Solubility (dissolution in solvent),"[3]; tert-Butylmethyl Ether, 30 vol, 50° C.",x
same,Solubility (dissolution in solvent),"[3]; tert-Butylmethyl Ether, 40 vol, 50° C.",x
same,Solubility (dissolution in solvent),"[3]; tert-Butylmethyl Ether, 50 vol, 50° C.",x
same,Solubility (dissolution in solvent),"[3]; tert-Butylmethyl Ether, 60 vol, 50° C.",x
same,Storage at 40° C./75% RH (change of form by XRPD),[1]; 14 days (2 weeks),no change in form was detected; also recorded: No change (14 days)
same,Form produced by competitive suspension equilibration (thermodynamic stability),"[4]; TWEEN 80 (0.5 mg/ml) or TWEEN 20 (0.5 mg/ml)/SPAN 20 (0.05 mg/ml), 7 to 10 days",most thermodynamically stable form
"C#CC(C)(C)NC(=O)c1cc(NC(=O)Cc2cc(Cl)ccc2O)ccn1 [Compound 36 Form C, 4-[[2-(5-Chloro-2-hydroxy-phenyl)acetyl]amino]-N-(1,1-dimethylprop-2-ynyl)pyridine-2-carboxamide]",Storage at 40° C./75% RH (change of form by XRPD),[1]; 7 days,Changed to mainly
"CC(C)(C)NC(=O)c1cc(NC(=O)NCc2ccccc2)ccn1 [Example 64, 4-(Benzylcarbamoylamino)-N-tert-butyl-pyridine-2-carboxamide]",% Potentiation @ 3.33 μM Avg,[2],55%
"CC(C)c1cc(Cl)cc(CC(=O)Nc2ccnc(C(=O)NC(C)(C)C)c2)c1O [Example 61, N-tert-Butyl-4-[[2-(5-chloro-2-hydroxy-3-isopropyl-phenyl)acetyl]amino]pyridine-2-carboxamide]",% Potentiation @ 3.33 μM Avg,[2],85%
"CC(C)(C)NC(=O)c1cc(NC(=O)NCc2ccc(Cl)cc2)ccn1 [Example 64.8, N-tert-butyl-4-[(4-chlorophenyl)methylcarbamoylamino]pyridine-2-carboxamide]",% Potentiation @ 3.33 μM Avg,[2],97%
"CC(C)(C#N)NC(=O)c1cc(NC(=O)Cc2ccccc2Cl)ccn1 [Example 30.3a, 4-[[2-(2-Chlorophenyl)acetyl]amino]-N-(1-cyano-1-methyl-ethyl)pyridine-2-carboxamide]",% Potentiation @ 3.33 μM Avg,[2],221%
"O=C(Cc1cc(Cl)ccc1O)Nc1ccnc(C(=O)NCc2ccccc2)c1 [Example 35.15, N-Benzyl-4-[[2-(5-chloro-2-hydroxy-phenyl)acetyl]amino]pyridine-2-carboxamide]",% Potentiation @ 3.33 μM Avg,[2],158%
same,pEC50,[2],6.82
"COc1ccc(O)c(CC(=O)Nc2ccnc(C(=O)NC(C)(C)C)c2)c1 [Example 3.8b, N-tert-Butyl-4-[[2-(2-hydroxy-5-methoxy-phenyl)acetyl]amino]pyridine-2-carboxamide]",% Potentiation @ 3.33 μM Avg,[2],203%
same,pEC50,[2],6.52
"CC(C)(O)C(C)(C)NC(=O)c1cc(NC(=O)Cc2cc(Cl)ccc2O)ccn1 [Example 7.14, 4-[[2-(5-Chloro-2-hydroxy-phenyl)acetyl]amino]-N-(2-hydroxy-1,1,2-trimethyl-propyl)pyridine-2-carboxamide]",% Potentiation @ 3.33 μM Avg,[2],225%
same,pEC50,[2],6.82
"CC(C)(C#N)NC(=O)c1cc(NC(=O)Cc2ccc(Cl)c(O)c2)ccn1 [Example 92.1, 4-[[2-(4-Chloro-3-hydroxy-phenyl)acetyl]amino]-N-(1-cyano-1-methyl-ethyl)pyridine-2-carboxamide]",% Potentiation @ 3.33 μM Avg,[2],151%
same,pEC50,[2],6.85

# — patent US20200361871A1 (Enterprise Therapeutics Ltd., priority 2018, published 2020)
